Test results: ChEMBL document CHEMBL5331079, “Novel thiazolidines of potential anti-proliferation properties against esophageal squamous cell carcinoma via ERK pathway” (Eur J Med Chem, 2023)
Values belong to the molecule of their own block, whether it stands above or below them. Active and inactive are the calls of the source. No cut-off for these calls is given here.

Tests used:
[1] = tested on: MCF7; experiment: Antiproliferative activity against human MCF7 cells assessed as inhibition of cell growth incubated for 96 hrs by MTT assay; format: functional, cell-based; settings: MCF7, 96 h
[2] = tested on: KYSE-30; experiment: Antiproliferative activity against human KYSE-30 cells assessed as inhibition of cell growth incubated for 72 hrs by MTT assay; format: functional, cell-based; settings: KYSE-30, 72 h
[3] = tested on: KYSE-30; experiment: Induction of apoptosis in human KYSE-30 cells assessed as loss of nuclei integrity at 10 uM incubated for 72 hrs by DAPI staining based confocal laser scanner microscopy analysis; format: functional, cell-based
[4] = tested on: KYSE-150 cell line; experiment: Inhibition of cell growth in human KYSE-150 cell line at 10 uM incubated for 72 hrs by MTT assay relative to control; format: functional
[5] = tested on: KYSE-150 cell line; experiment: Induction of apoptosis in human KYSE-150 cell line assessed as downregulation of ERK protein level incubated for 4 to 12 hrs by Western blotting analysis; format: functional, cell-based; settings: time 4-12 hrs, TDE = time-dependent effect
[6] = tested on: NES-G4T; experiment: Induction of apoptosis in human NES-G4T cells assessed as effect on ratio of AKT phosphorylation incubated for 4 to 12 hrs by Western blotting analysis; format: functional, cell-based; settings: time 4-12 hrs
[7] = tested on: KYSE-150 cell line; experiment: Induction of apoptosis in human KYSE-150 cell line assessed as chromatin condensation at 10 uM incubated upto 72 hrs by DAPI staining based confocal laser scanner microscopy analysis; format: functional
[8] = tested on: KYSE-150 cell line; experiment: Induction of apoptosis in human KYSE-150 cell line assessed as effect on ratio of ERK phosphorylation incubated for 4 to 12 hrs by Western blotting analysis; format: functional, cell-based; settings: time 4-12 hrs
[9] = tested on: KYSE-150 cell line; experiment: Antiproliferative activity against human KYSE-150 cell line assessed as reduction of cell viability at 1.25 to 100 uM incubated for 72 hrs by MTT assay; format: functional, cell-based; settings: dose 1.25-100 µM
[10] = tested on: NES-G4T; experiment: Induction of apoptosis in human NES-G4T cells assessed as effect on ratio of ERK phosphorylation incubated for 4 to 12 hrs by Western blotting analysis; format: functional, cell-based; settings: time 4-12 hrs
[11] = tested on: KYSE-150 cell line; experiment: Induction of apoptosis in human […] cell line assessed as loss of nuclei integrity at 10 uM incubated for 72 hrs by DAPI staining based confocal laser scanner microscopy analysis; format: functional
[12] = Antiproliferative activity against human NES-G4T cells assessed as reduction of cell viability at 1.25 to 100 uM incubated for 72 hrs by MTT assay; format: toxicity, cell-based; settings: dose 1.25-100 µM
[13] = tested on: KYSE-150 cell line; experiment: Induction of apoptosis in human KYSE-150 cell line assessed as nuclear fragmentation at 10 uM incubated upto 72 hrs by DAPI staining based confocal laser scanner microscopy analysis; format: functional
[14] = tested on: KYSE-30; experiment: Induction of apoptosis in human KYSE-30 cells assessed as chromatin condensation at 10 uM incubated upto 72 hrs by DAPI staining based confocal laser scanner microscopy analysis; format: functional, cell-based
[15] = tested on: HET-1A; experiment: Antiproliferative activity against human HET-1A cells assessed as reduction of cell viability at 1.25 to 100 uM incubated for 72 hrs by MTT assay; format: toxicity, cell-based; settings: dose 1.25-100 µM
[16] = tested on: KYSE-30; experiment: Induction of apoptosis in human KYSE-30 cells assessed as nuclear fragmentation at 10 uM incubated upto 72 hrs by DAPI staining based confocal laser scanner microscopy analysis; format: functional, cell-based
[17] = tested on: KYSE-150 cell line; experiment: Antiproliferative activity against human KYSE-150 cell line assessed as inhibition of cell growth incubated for 72 hrs by MTT assay; format: functional, cell-based; settings: KYSE-150, 72 h
[18] = tested on: KYSE-150 cell line; experiment: Induction of apoptosis in human KYSE-150 cell line assessed as effect on ratio of AKT phosphorylation incubated for 4 to 12 hrs by Western blotting analysis; format: functional, cell-based; settings: time 4-12 hrs
[19] = Antiproliferative activity against human NES-G4T cells assessed as inhibition of cell growth incubated for 72 hrs by MTT assay; format: toxicity, cell-based
[20] = tested on: KYSE-30; experiment: Antiproliferative activity against human KYSE-30 cells assessed as reduction of cell viability at 1.25 to 100 uM incubated for 72 hrs by MTT assay; format: functional, cell-based; settings: dose 1.25-100 µM
[21] = Antiproliferative activity against human HET-1A cells assessed as inhibition of cell growth incubated for 72 hrs by MTT assay; format: toxicity, cell-based

IC50 [1]: 0.5 µM
SMILES: COc1ccc(/C=C2\S/C(=N\c3ccccc3)N(C)C2C)cc1 (stereo not given)

SMILES: CC1(C)N/C(=N/c2ccc([N+](=O)[O-])cc2)S/C1=C\c1ccc(Br)cc1
IC50 [2]: 31.5 µM

IC50 [1]: 0.5 µM
SMILES: CNC(C)C#Cc1ccc(OC)cc1 (stereo not given)

SMILES: COc1ccc(/N=C2/NC(C)(C)/C(=C/c3ccc(Br)cc3)S2)cc1
IC50 [2]: 14.2 µM

SMILES: CC1(C)N/C(=N/c2ccc(Cl)cc2)S/C1=C\c1ccc(Br)cc1
IC50 [2]: 64.2 µM

SMILES: CC1(C)N/C(=N/c2ccccc2)S/C1=C\c1ccc(Br)cc1
IC50 [2]: 18.6 µM

SMILES: Cc1ccc(/N=C2/NC(C)(C)/C(=C/c3ccc(Br)cc3)S2)cc1Cl
IC50 [2]: 65.4 µM

SMILES: CC1(C)N/C(=N/c2ccc(Br)cc2)S/C1=C\c1ccc(Br)cc1
IC50 [2]: 13.2 µM

SMILES: COc1ccc(/N=C2/NC(C)(C)/C(=C/c3ccc(Br)cc3)S2)c([N+](=O)[O-])c1
Activity [3]: Active | inhibition at 10 µM [4]: 71% | Activity [5]: Tde | IC50 [2]: 16.8 µM | Activity [6]: inactive | Activity [7]: Active | Activity [8]: inactive | Activity [9]: Dose-Dependent Effect | Activity [10]: inactive | Activity [11]: Active | Activity [12]: Toxic | Activity [13]: Active | Activity [14]: Active | Activity [15]: Toxic | Activity [16]: Active | IC50 [17]: 10.1 µM | Activity [18]: inactive | IC50 at 72 h [19]: 202 µM | Activity [20]: Dose-Dependent Effect | IC50 at 72 h [21]: 13 µM

SMILES: CC1(C)N/C(=N/c2ccc(F)cc2)S/C1=C\c1ccc(Br)cc1
IC50 [2]: 10.6 µM

SMILES: Cc1ccc(/N=C2/NC(C)(C)/C(=C/c3ccc(Br)cc3)S2)cc1
IC50 [2]: 64.3 µM
